Where two headings read alike, the source gives them in different places.

Common to all, as to type: cell-based
One assay has as its system Human Colon Cancer HT-29. Description: Cell proliferation experiment (Alarm blue, 72 h, EC50). The note with it: HT-29 cells. In outline:
(§1)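 Single-cell suspensions from log-phase cultures are plated, compound in complete medium is added at 5-fold dilution steps (two replicates each), and cells grow for 72 h. Viability is then measured as Alamar blue fluorescence, giving EC50 by sigmoidal fitting.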

In assay [1] the test system is Human Monocytic Leukemia MV4-11. The description is as above. The method, boiled down:
as §1

The subject of assay [2] is Human Small Cell Lung Cancer NCI-H82. Described as above. As to conditions: NCIH82 cells. In outline: as §1
Assay [3] deals with Human Colon Cancer HCT-116. The description is as above. The note with it: HCT116 cells. In outline:
as §1

In a further assay the target is T1, PLK1 (Homo sapiens, UniProt P53350).
T1 construct: endogenous in cells
Put plainly: Western blot, protein degradation (DC50). In outline:
(§2)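 Cells treated with compound, lysed in RIPA and resolved by SDS-PAGE (4%-12%); PVDF blots probed with primary antibody overnight at 4° C, then secondary antibody, and developed with ECL. Band intensities quantified by densitometry to give degradation.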

The next assay deals with T2, BRD4 (Homo sapiens, UniProt O60885).
T2 construct: endogenous in cells
Description: Western blot, protein degradation (DC50). The method, boiled down:
as §2

The test system of assay [4] is Human cervical adenocarcinoma cells Hela. Put plainly: Cell proliferation experiment (Alarm blue, 72 h, EC50). The method, boiled down: as §1
The test system of assay [5] is Human Breast Cancer MDA-MB-231. The description is as above. The note with it: MDA-MB-231 cells. The method, boiled down: as §1
Setting [6] is: Homo sapiens, MV4-11, MV4;11 cells.
[7] abbreviates: 6 h, western blot, read-out: PLK1 DC50 (6 h).
The mark [8] stands for this setting: 6 h, western blot, read-out: BRD4 DC50 (6 h).

T1 sequence (P53350 whole entry): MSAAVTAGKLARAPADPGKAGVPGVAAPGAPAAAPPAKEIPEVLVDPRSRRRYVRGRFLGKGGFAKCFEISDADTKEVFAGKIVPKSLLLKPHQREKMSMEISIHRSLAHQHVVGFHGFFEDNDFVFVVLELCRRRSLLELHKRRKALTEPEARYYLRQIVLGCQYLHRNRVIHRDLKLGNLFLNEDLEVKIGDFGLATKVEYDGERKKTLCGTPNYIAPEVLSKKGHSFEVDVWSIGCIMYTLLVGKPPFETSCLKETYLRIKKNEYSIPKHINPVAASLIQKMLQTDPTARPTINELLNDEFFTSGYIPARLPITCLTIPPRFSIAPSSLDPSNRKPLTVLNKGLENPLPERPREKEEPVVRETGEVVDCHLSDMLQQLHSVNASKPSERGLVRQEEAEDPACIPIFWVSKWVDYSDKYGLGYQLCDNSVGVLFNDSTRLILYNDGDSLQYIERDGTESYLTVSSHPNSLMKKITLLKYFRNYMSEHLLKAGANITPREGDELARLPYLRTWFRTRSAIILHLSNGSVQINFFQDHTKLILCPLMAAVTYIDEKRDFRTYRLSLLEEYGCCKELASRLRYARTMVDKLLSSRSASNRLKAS

For orientation: EC50 means the concentration at which the effect is half-maximal. As for `CC[C@@H]1C(=O)N(C)c2cnc(Nc3ccc(C(=O)NCc4cn(CCOCCNCCC(=O)Nc5cccc6c5CN(C5CCC(=O)NC5=O)C6=O)nn4)cc3OC)nc2N1C1CCCC1` (stereo partly drawn) [UB-180707], the values for the EC50 (with Human Colon Cancer HT-29 (Homo sapiens); in assay [1] (setting [6])) were 100 to 1000 nM and 10 to 100 nM, respectively.

In the case of `CC[C@@H]1C(=O)N(C)c2cnc(Nc3ccc(C(=O)NCCOCCNCCCC(=O)Nc4cccc5c4CN(C4CCC(=O)NC4=O)C5=O)cc3OC)nc2N1Cc1ccc(Br)cc1` (stereo partly drawn) [UB-180626], the EC50 was over 1000 nM in assay [2], over 1000 nM in assay [3] and 10 to 100 nM in assay [1] (MV4;11 cells).

By DC50 is commonly meant the concentration at which degradation of the target reaches its halfway point. Turning to `CC[C@@H]1C(=O)N(C)c2cnc(Nc3ccc(C(=O)NCCCNCCCCCCC(=O)Nc4cccc5c4CN(C4CCC(=O)NC4=O)C5=O)cc3OC)nc2N1Cc1ccc(Br)cc1` (stereo partly drawn) [UB-180627], the DC50 was 100 to 1000 nM at PLK1 (24 h, read-out: PLK1 DC50 (24 h)) and under 10 nM at BRD4 (24 h, read-out: BRD4 DC50 (24 h)). Moreover, the EC50 is over 1000 nM in assay [2] (Homo sapiens, NCI-H82); over 1000 nM in assay [3] (Homo sapiens, HCT-116); 10 to 100 nM in assay [1] (setting [6]).

For `CC(OC(=O)N(CCOCCOCCOCCNC(=O)[C@]1(Cc2cccc(Nc3nccs3)n2)CC[C@@H](Oc2cccc(Cl)c2F)CC1)CC(=O)Nc1cccc2c1CN(C1CCC(=O)NC1=O)C2=O)C(C)SSC[C@H](NC(=O)[C@@H](CC(=O)O)NC(=O)[C@@H](CC(=O)O)NC(=O)[C@@H](CCCNC(=N)N)NC(=O)[C@@H](CC(=O)O)NC(=O)CC[C@H](NC(=O)c1ccc(NCc2cnc3nc(N)[nH]c(=O)c3n2)cc1)C(=O)O)C(=O)O` (stereo partly drawn) [UB-180839], the EC50 (in assay [4]; in assay [3]; with Human Colon Cancer HT-29; in assay [5]) was 100 to 1000 nM in each case.

Regarding `CC[C@@H]1c2c(C#N)ncn2-c2cnc(Nc3ccc(C(=O)NCCOCCOCCOCCOCC(=O)N[C@H](C(=O)N4C[C@H](O)C[C@H]4C(=O)NCc4ccc(-c5scnc5C)cc4)C(C)(C)C)cc3OC)nc2N1C1CCCC1` [UB-180525], the DC50 on PLK1 (setting [7]) and at BRD4 (setting [8]) was over 1000 nM throughout. Further, the EC50 in assay [4] (Homo sapiens) was over 1000 nM; in assay [1] (setting [6]) it was 10 to 100 nM.

Consider `CC[C@@H]1C(=O)N(C)c2cnc(Nc3ccc(C(=O)NCCOCCOCCOCC(=O)Nc4cccc5c4CN(C4CCC(=O)NC4=O)C5=O)cc3OC)nc2N1Cc1ccc(Br)cc1` (stereo partly drawn) [UB-180566], for which the DC50 on PLK1 (setting [7]) and on BRD4 (setting [8]) was under 10 nM throughout. Besides, the EC50 in assay [2] (Homo sapiens, NCI-H82) is over 1000 nM; in assay [3] (Homo sapiens, HCT-116), 100 to 1000 nM; in assay [1] (setting [6]), under 10 nM.

As for `CC[C@@H]1c2c(C#N)ncn2-c2cnc(Nc3ccc(C(=O)NCCOCCOCCOCCC(=O)N[C@H](C(=O)N4C[C@H](O)C[C@H]4C(=O)NCc4ccc(-c5scnc5C)cc4)C(C)(C)C)cc3OC)nc2N1C1CCCC1` [UB-180529], the DC50 at PLK1 (setting [7]) and on BRD4 (setting [8]) was over 1000 nM throughout. The EC50 was over 1000 nM in assay [4] (Homo sapiens) and 10 to 100 nM in assay [1] (setting [6]).

On to `CC[C@@H]1C(=O)N(C)c2cnc(Nc3ccc(C(=O)NCCOCCOCCOCCNCCCCCC(=O)Nc4cccc5c4CN(C4CCC(=O)NC4=O)C5=O)cc3OC)nc2N1Cc1ccc(Br)cc1` (stereo partly drawn) [UB-180644], for which the EC50 in assay [2] (Homo sapiens, NCI-H82) is over 1000 nM; in assay [3] (Homo sapiens, HCT-116) it was over 1000 nM; in assay [1] (setting [6]) it was 10 to 100 nM.

Take `CC[C@@H]1C(=O)N(C)c2cnc(Nc3ccc(C(=O)NCc4cn(CCNCC(=O)Nc5cccc6c5CN(C5CCC(=O)NC5=O)C6=O)nn4)cc3OC)nc2N1C1CCCC1` (stereo partly drawn) [UB-180691]: the EC50 lay within 100 to 1000 nM in the assay with Human Colon Cancer HT-29 (Homo sapiens) and 10 to 100 nM in assay [1] (setting [6]).

With `CC[C@@H]1C(=O)N(C)c2cnc(Nc3ccc(C(=O)NCCCNCCCCCC(=O)Nc4cccc5c4CN(C4CCC(=O)NC4=O)C5=O)cc3OC)nc2N1Cc1ccc(Br)cc1` (stereo partly drawn) [UB-180639], the EC50 in assay [2] (Homo sapiens, NCI-H82) was over 1000 nM; in assay [3] (Homo sapiens, HCT-116) it was over 1000 nM; in assay [1] (setting [6]), 10 to 100 nM.

With `CC[C@@H]1C(=O)N(C)c2cnc(Nc3ccc(C(=O)NCCCNCCCCCCCC(=O)Nc4cccc5c4CN(C4CCC(=O)NC4=O)C5=O)cc3OC)nc2N1Cc1ccc(Br)cc1` (stereo partly drawn) [UB-180628], the EC50 is over 1000 nM in assay [2] (Homo sapiens, NCI-H82); over 1000 nM in assay [3] (Homo sapiens, HCT-116); 10 to 100 nM in assay [1] (setting [6]).

On to `CC[C@@H]1C(=O)N(C)c2cnc(Nc3ccc(C(=O)NCCCNCCCCC(=O)Nc4cccc5c4CN(C4CCC(=O)NC4=O)C5=O)cc3OC)nc2N1Cc1ccc(Br)cc1` (stereo partly drawn) [UB-180638], for which the EC50 in assay [2] (Homo sapiens, NCI-H82) is over 1000 nM; in assay [3] (Homo sapiens, HCT-116), over 1000 nM; in assay [1] (setting [6]), 10 to 100 nM.

Consider `CC[C@@H]1c2nncn2-c2cnc(Nc3ccc(C(=O)NCCOCCOCCOCCOCC(=O)N[C@H](C(=O)N4C[C@H](O)C[C@H]4C(=O)NCc4ccc(-c5scnc5C)cc4)C(C)(C)C)cc3OC)nc2N1C1CCCC1` [UB-180523], for which the DC50 on PLK1 (setting [7]) and at BRD4 (setting [8]) was over 1000 nM in each case. Also, the EC50 in assay [4] (Homo sapiens) is over 1000 nM; in assay [1] (setting [6]), 10 to 100 nM.

These data come from patent publication US20210369853A1, “TARGETED PROTEASE DEGRADATION PLATFORM” (EUBULUS BIOTHERAPEUTICS INC., priority 2018, published 2021).
